Measurements from patent US20030224403A1 (priority 2002, published 2003).
Several values for one entry are separate records, joined by “and”; a condition that tells them apart may be missing. Equal values may be shown once. Entries after “also recorded” stand apart in the source; their conditions may differ. Residues, ends and D or L forms follow the SMILES beside them. *: point of attachment. Cbz = O=C(OCc1ccccc1)*; CH2F = FC*

What was measured:
RAW 264.7 cells [1] = format: cell-based, mouse
B. anthracis spores [2] = settings: in vivo
B. anthracis spores [3] = settings: in vivo; remark: listed apart in the source
RAW 264.7 cells [4] = format: cell-based, mouse; remark: listed apart in the source
[5] = mouse, in vivo, ip; cited from earlier work
[6] = test system: Fas expression in RAW 264.7 cells; format: cell-based, mouse
RAW 264.7 cells [7] = format: cell-based, mouse; remark: listed apart in the source
RAW 264.7 cells [8] = format: cell-based, mouse; remark: listed apart in the source
RAW 264.7 cells [9] = format: cell-based, mouse; remark: listed apart in the source
anthrax (Sterne) spores = test system: anthrax (Sterne) spores; set-up: species or system B. anthracis
[10] = test system: human PBMCs infected with anthrax (Sterne) spores; format: cell-based
[11] = test system: RAW 264.7 cells infected with anthrax (Sterne) spores; format: cell-based, mouse
[12] = test system: human peripheral blood monocytes / PBMCs; format: cell-based
RAW 264.7 cells [13] = format: cell-based, mouse; settings: 4 h

Question: For `C[S+]([O-])c1ccc(-c2nc(-c3ccncc3)c(-c3ccc(F)cc3)[nH]2)cc1` (stereo not drawn) [SB 203580], which “antitoxin effect (cell survival, MTT)” value (RAW 264.7 cells [1]) is on record?
Answer: not able to decrease the effect of LeTx; also recorded: do not increase cell survival; also recorded: none of these inhibitors increased cell survival

Question: Which “mice alive after 11 days” value (B. anthracis spores [2]) does the source give for `O=C(O)c1cn(C2CC2)c2cc(N3CCNCC3)c(F)cc2c1=O` [ciprofloxacin] here?
Answer: 100%

Question: What about the “mice survived at least 14 days” value (B. anthracis spores [2]) of the same molecule?
Answer: 100%

Question: What about the “protection of mice (FIG. 29)” value (B. anthracis spores [2]) of the same molecule?
Answer: complete protection

Question: What about the “survival (FIG. 29)” value (B. anthracis spores [2]) of the same molecule?
Answer: 10%

Question: And the “mice alive after 15 days” value (B. anthracis spores [3])?
Answer: approximately 50%

Question: And the “survival of mice by day 12” value (B. anthracis spores [3])?
Answer: 50%

Question: For `COC(=O)C[C@H](NC(=O)[C@H](C)NC(=O)[C@@H](NC(=O)[C@H](CC(=O)OC)NC(=O)[C@@H](NC(=O)OCc1ccccc1)C(C)C)C(C)C)C(=O)CF` [inhibitor of caspase 2, Z-VDVAD-FMK] (Cbz-VD(OMe)VAD(OMe)-CH2F), which “protection of cells against LeTx (membrane permeability staining)” value (shortened to “protection of cells against LeTx”) (RAW 264.7 cells [4]) is on record?
Answer: different degree of protection

Question: Which “survival of mice” value (B. anthracis spores [2]) does the source give for `COC(=O)C[C@H](NC(=O)[C@H](C)NC(=O)[C@@H](NC(=O)OCc1ccccc1)C(C)C)C(=O)CF` [Z-VAD-fmk, benzyloxycarbonyl-Val-Ala-Asp-fluoromethylketone] (Cbz-Val-Ala-Asp(OMe)-CH2F) here?
Answer: dead by 11 days

Question: What about the “mice alive by day 15” value (B. anthracis spores [2]; ip) of the same molecule?
Answer: 20%

Question: What about the “mice survived by day 15” value (B. anthracis spores [2]; ip) of the same molecule?
Answer: 20% and 10%

Question: With `COC(=O)CC[C@H](NC(=O)[C@H](CC(=O)OC)NC(=O)OCc1ccccc1)C(=O)N[C@H](C(=O)N[C@@H](CC(=O)OC)C(=O)CF)C(C)C` [inhibitor of caspase 3, Z-DEVD-FMK] as the molecule, how does the “protection of cells against LeTx” value (RAW 264.7 cells [4]) read?
Answer: different degree of protection

Question: With trypsin as the molecule, how does the “survival of mice” value (B. anthracis spores [2]) read?
Answer: dead by 11 days

Question: Which results are given for “GM-CSF: recombinant murine granulocyte-macrophage colony stimulating factor”?
Answer: toxicity in mice [5]: No toxicity; mice survived after 24 days (B. anthracis spores [2]; ip): 20%; Fas expression after stimulation with cytokine [6]: greatly increased; effect of murine cytokine on cell lysis by LeTx (RAW 264.7 cells [7]): increased cell survival; overall cell survival and relative number of apoptotic cells in presence of LeTx (RAW 264.7 cells [8]): substantially increased; prevention of LeTx-induced apoptosis (RAW 264.7 cells [8]): incapable of preventing apoptosis completely; protection of Raw 264.7 cells from LeTx (RAW 264.7 cells [8]): partially protected

Question: For `CO/C1=C\C(C)=C\[C@@H](C)[C@@H](O)[C@@H](C)C/C(C)=C/C=C/[C@H](OC)[C@@H]([C@@H](C)[C@@H](O)[C@H](C)[C@@]2(O)C[C@@H](O)[C@H](C)[C@@H](C(C)C)O2)OC1=O` [bafilomycin A1], which “survival of mice” value (B. anthracis spores [2]) is on record?
Answer: dead by 11 days

Question: With `COc1cccc(-c2cc(=O)c3ccccc3o2)c1N` [PD 98059] as the molecule, how does the “antitoxin effect (cell survival, MTT)” value (RAW 264.7 cells [1]) read?
Answer: did not display an antitoxin effect; also recorded: do not increase cell survival; also recorded: none of these inhibitors increased cell survival

Question: For IL-6: cytokine, which “cell viability relative to cells treated with toxin only (MTT)” value (RAW 264.7 cells [9]) is on record?
Answer: increased cell viability

Question: With `CC[C@H](C)[C@H](NC(=O)[C@H](CCC(=O)OC)NC(=O)[C@@H](NC(=O)OCc1ccccc1)C(C)C)C(=O)N[C@@H](CC(=O)OC)C(=O)CF` [inhibitor of caspase 6, Z-VEID-FMK] (Cbz-VE(OMe)ID(OMe)-CH2F) as the molecule, how does the “protection of cells against LeTx” value (RAW 264.7 cells [4]) read?
Answer: most active

Question: Which “survival of mice” value (B. anthracis spores [2]) does the source give for `CC(C)C[C@H](NC(=O)[C@@H](O)[C@H](N)Cc1ccccc1)C(=O)O` [bestatin] here?
Answer: dead by 11 days

Question: What about the “mice dead by day 9” value (B. anthracis spores [3]) of the same molecule?
Answer: more than 30%

Question: What about the intrinsic antibiotic activity (anthrax (Sterne) spores) of the same molecule?
Answer: undetectable

Question: And the “killing (bactericidal) activity of human PBMCs” value [10]?
Answer: increased in a concentration dependent manner; also recorded: restores a bactericidal activity

Question: And the “bactericidal activity of Raw 264.7 cells” value [11]?
Answer: restores a bactericidal activity

Question: For TNF-α, which “Fas expression after stimulation with cytokine” value [6] is on record?
Answer: greatly increased

Question: And the “effect of murine cytokine on cell lysis by LeTx” value (“effect of murine cytokine” below) (RAW 264.7 cells [7])?
Answer: greatly increased cell lysis

Question: With `CN[C@@H]1C[C@H]2O[C@@](C)([C@@H]1OC)n1c3ccccc3c3c4c(c5c6ccccc6n2c5c31)C(=O)NC4` [staurosporine] as the molecule, how does the “fluorescence pattern (YO-PRO-1) of human monocytes” value [12] read?
Answer: fluorescence pattern typical of apoptotic cells

Question: What about the “mitochondrial transmembrane potential (JC-1 staining)” value (RAW 264.7 cells [13]) of the same molecule?
Answer: JC-1 staining changes similar to LeTx

Question: For `COC(=O)CC[C@H](NC(=O)[C@H](Cc1c[nH]c2ccccc12)NC(=O)OCc1ccccc1)C(=O)N[C@@H](Cc1cnc[nH]1)C(=O)N[C@@H](CC(=O)OC)C(=O)CF` [inhibitor of caspase 1, Z-WEHD-FMK] (Cbz-WE(OMe)HD(OMe)-CH2F), which “protection of cells against LeTx” value (RAW 264.7 cells [4]) is on record?
Answer: different degree of protection

Question: For `COc1ccc(CCN(C)CCCC(C#N)(c2ccc(OC)c(OC)c2)C(C)C)cc1OC` (stereo not drawn) [verapamil], which “survival of mice” value (B. anthracis spores [2]) is on record?
Answer: dead by 11 days

Question: Which “survival of mice” value (B. anthracis spores [2]) does the source give for `CCN(CC)CCCC(C)Nc1ccnc2cc(Cl)ccc12` (stereo not drawn) [chloroquine] here?
Answer: dead by 11 days

Question: For Z-YVAD [inhibitor of caspase 4], which “protection of cells against LeTx” value (RAW 264.7 cells [4]) is on record?
Answer: most active

Question: For `COC(=O)CC[C@H](NC(=O)[C@H](CC(C)C)NC(=O)OCc1ccccc1)C(=O)N[C@@H](Cc1cnc[nH]1)C(=O)N[C@@H](CC(=O)OC)C(=O)CF` [inhibitor of caspase-9, Z-LEHD-FMK] (Cbz-LE(OMe)HD(OMe)-CH2F), which “protection of cells against LeTx” value (RAW 264.7 cells [4]) is on record?
Answer: unable to protect

Question: With `CC[C@H](C)[C@H](NC(=O)OCc1ccccc1)C(=O)N[C@@H](CCC(=O)OC)C(=O)N[C@H](C(=O)N[C@@H](CC(=O)OC)C(=O)CF)[C@@H](C)O` [inhibitor of caspase 8, Z-IETD-FMK] (Cbz-IE(OMe)TD(OMe)-CH2F) as the molecule, how does the “protection of cells against LeTx” value (RAW 264.7 cells [4]) read?
Answer: most active

Question: For `NC[C@@H]1O[C@H](O[C@H]2[C@@H](O)[C@H](O[C@@H]3[C@@H](O)[C@H](N)C[C@H](N)[C@H]3O[C@H]3O[C@H](CN)[C@@H](O)[C@H](O)[C@H]3N)O[C@@H]2CO)[C@H](N)[C@@H](O)[C@@H]1O` [neomycin], which “mice alive after 11 days” value (B. anthracis spores [2]) is on record?
Answer: 100%

Question: And the “survival of mice after 10 days” value (B. anthracis spores [3])?
Answer: less than 20%

B1: IFN-γ: recombinant mouse interferon-gamma (protein, UniProt P01579 24-161, looked up)
Interferon gamma: QDPYVKEAENLKKYFNAGHSDVADNGTLFLGILKNWKEESDRKIMQSQIVSFYFKLFKNFKDDQSIQKSVETIKEDMNVKFFNSNKKKRDDFEKLTNYSVTDLNVQRKAIHELIQVMAELSPAAKTGKRKRSQMLFRG
Question: With B1 as the molecule, how does the “Fas expression after stimulation with cytokine” value [6] read?
Answer: greatly increased

Question: What about the “effect of murine cytokine” value (RAW 264.7 cells [7]) of the same molecule?
Answer: increased cell susceptibility to lysis

B2: IL-4: cytokine (protein, UniProt P05112 25-153, looked up)
Interleukin-4: HKCDITLQEIIKTLNSLTEQKTLCTELTVTDIFAASKNTTEKETFCRAATVLRQFYSHHEKDTRCLGATAQQFHRHKQLIRFLKRLDRNLWGLAGLNSCPVKEANQSTLENFLERLKTIMREKYSKCSS
Question: With B2 as the molecule, how does the “cell viability relative to cells treated with toxin only (MTT)” value (RAW 264.7 cells [9]) read?
Answer: increased cell viability

B3: IL-12: murine interleukin-12 (protein, UniProt P29459 23-219; P29460 23-328, looked up)
Interleukin-12 subunit alpha: RNLPVATPDPGMFPCLHHSQNLLRAVSNMLQKARQTLEFYPCTSEEIDHEDITKDKTSTVEACLPLELTKNESCLNSRETSFITNGSCLASRKTSFMMALCLSSIYEDLKMYQVEFKTMNAKLLMDPKRQIFLDQNMLAVIDELMQALNFNSETVPQKSSLEEPDFYKTKIKLCILLHAFRIRAVTIDRVMSYLNAS
Interleukin-12 subunit beta: IWELKKDVYVVELDWYPDAPGEMVVLTCDTPEEDGITWTLDQSSEVLGSGKTLTIQVKEFGDAGQYTCHKGGEVLSHSLLLLHKKEDGIWSTDILKDQKEPKNKTFLRCEAKNYSGRFTCWWLTTISTDLTFSVKSSRGSSDPQGVTCGAATLSAERVRGDNKEYEYSVECQEDSACPAAEESLPIEVMVDAVHKLKYENYTSSFFIRDIIKPDPPKNLQLKPLKNSRQVEVSWEYPDTWSTPHSYFSLTFCVQVQGKSKREKKDRVFTDKTSATVICRKNASISVRAQDRYYSSSWSEWASVPCS
Question: With B3 as the molecule, how does the “effect of murine cytokine” value (RAW 264.7 cells [7]) read?
Answer: without effect
